“Also recorded” adds a separate entry of the source. Where no end group is shown, it is not given here.
Experiments:
rASIC3 = tested on: rASIC3; set-up: method as in PMID 15044953; conditions: ref [34]; read-out: IC50, homomeric rASIC3; cited from earlier work
hASIC3 = tested on: hASIC3; set-up: method as in PMID 15044953; conditions: ref [34]; cited from earlier work
[1] = pH not stated for this peptide; ref [37]; cited from earlier work
From the text: RFa-related peptides have an NH2 group which is positively charged at pH 5 to 8 [21]. The effects of Sh5b could be due to the positive charge given by its amine group. Other inhibitors of ASICs, such as the PhcrTx1 peptide, which at pH 7.4 has a net charge of +5.03, APETx2 (net charge = +2.00), and PcTx1 (net charge = +3) also have that particularity. Aminoglycosides are also positively-charged ASICs modulators.

[2] = tested on: ASIC currents in rat dorsal root ganglion (DRG) neurons; assay: ASIC currents in DRG neurons, whole-cell voltage clamp; type: cell-based, Long-Evans CII rat (P7-P10)
Protocol: To study the effect of Sa12b and Sh5b on ASIC, DRG neurons were obtained from Long-Evans CII / ZV rats of 7 to 10 days of postnatal age, of either sex. Animals were provided by the laboratory animal facility ‘Claude Bernard’ of the Autonomous University of Puebla. The study was performed in accordance with the recommendations in the Guiding Principles in the Care and Use of Vertebrate Animals in Research and Training of the American Physiological Society, and with the regulations of the NOM-062-ZOO-1999 of the Mexican Ministry of Agriculture, Stockbreeding, Rural Development, Fishing and Food. The protocol was reviewed and approved by the Institutional Committee for Animal Care and Use (IACUC) of the Autonomous University of Puebla (VIEP-BUAP) on 17 July 2017. The ethical approval code is SOEE-UALVIEP-17-1. All efforts were made to minimize animal suffering and to reduce the number of animals used. DRG neurons were isolated and maintained in primary culture according to the methodology described previously. The dissection and cell culture were performed within a level I biosafety laminar flow hood (Nuaire, Plymouth, MN, USA). Rats were anesthetized with sevoflurane and sacrificed by decapitation. Subsequently, the rat was placed in prone position to make a longitudinal incision through the vertebral bodies removing the spinal cord. Dorsal root ganglia were isolated (approximately 12 to 18 per rat) using conventional dissection under a stereoscopic microscope (American Optical, Southbridge, MA, USA). Once extracted, DRG neurons were placed in a disposable sterile centrifuge tube (Corning, Corning, NY, USA), in which they were incubated for 30 min at 37 °C in Leibovitz L15 medium (L15) (Invitrogen, Waltham, MA, USA), added with 1.25 mg/mL of trypsin and 1.25 mg/mL of collagenase (both from Sigma-Aldrich, St. Louis, MO, USA) for an enzymatic dissociation.
After the enzymatic treatment, the ganglia were washed 3 times with 100% L15 medium; after each wash, the cells were subjected to mechanical dissociation using glass three-gauge Pasteur pipettes; between each wash, a cell pellet was formed using a centrifuge at 5000 rpm. After the third wash, once the cell pellet was formed, the supernatant was discarded, and the cell suspension was placed in a 35 mm culture dish (Corning) on 12 × 10 mm glass plates (Corning) previously treated with poly-D-lysine (Sigma-Aldrich, St. Louis, MO, USA).
Dissociated neurons were incubated for a period of time ranging from 2 to 8 h in a humidified atmosphere ([…], 5% CO2, at 37 °C) using a water-jacketed CO2 incubator (Nuaire, Plymouth, MN, USA) allowing for settlement and adhesion of isolated cells to the glass plates. The cells were cultured in modified L15 medium, supplemented with 10% fetal bovine serum (Gibco, Waltham, MA, USA), 100 IU penicillin (Lakeside, Hayward, CA USA), fungizone 2.5 μL/mL (Gibco), NaHCO3 15.7 mM (J.T. Baker, Radnor DE, USA) and 15.8 mM HEPES (Sigma-Aldrich, St. Louis, MO, USA).
After an incubation period of 2 to 8 h, the recording of ASIC currents in DRG neurons was performed. Cells were transferred to a recording chamber mounted in a phase-contrast inverted microscope (TMS, Nikon Co. Tokyo, Japan).
The recording chamber was constantly perfused with extracellular solution (Table 3). Recordings were performed in whole-cell voltage-clamp mode using an Axopatch 1D amplifier (Molecular Devices, Union City, CA, USA). Data collection and generation of commands for the perfusion change were carried out by the pClamp 9.2 (Molecular Devices) software in a 16-bit data acquisition system (Digidata 1320, Molecular Devices). […] The signals were digitized at 5 kHz. The series resistance was electronically compensated at 80%. Throughout the recording, access resistance and seal quality were monitored to ensure stable recording conditions.
Proton-gated currents were obtained with a holding potential of −60 mV. […]

ASIC1a = conditions: ref [38]; cited from earlier work
ASIC1b = conditions: ref [9]; read-out: EC50, agonist of ASIC1b; cited from earlier work
ASIC currents = conditions: 10 μM stated to be close to the EC50 of FMRFa; no reference given; cited from earlier work
Protocol: The peptide was initially tested at 10 μM, this concentration was used because it is close to the EC50 of FMRFa. With application of 10 µM Sa12b in preincubation form (20 s before and 5 s during acid pulse), Sa12b inhibited ASIC currents 92.7 ± 7.3% (p < 0.05 paired Student’s t-test, n = 5) (Figure 2A).

[3] = biological target: Acid-Sensing Ion Channels (ASIC) of rat dorsal root ganglion neurons
[4] = biological target: Acid-Sensing Ion Channels (ASIC) of rat dorsal root ganglion neurons; remark: listed apart in the source
[5] = Sh5b 100 nM, co-application, mean ± E.S., n = 5
[6] = Sh5b 100 nM, preincubation, mean ± E.S., n = 9
[7] = Sh5b 100 nM, preincubation, single recording, Figure 6A
[8] = Sh5b 1 µM, preincubation, single recording, Figure 6B
[9] = Sh5b 3 µM, co-application, single recording, Figure 5A
[10] = Sh5b 10 µM, co-application, mean ± E.S., n = 9
[11] = Sh5b 10 µM, co-application, single recording, Figure 5B
[12] = Sh5b 10 µM, preincubation, mean ± E.S., n = 12
[13] = Sh5b 10 µM, preincubation, single recording, Figure 6C
[14] = Sh5b 30 µM, co-application, mean ± E.S., n = 6
[15] = Sh5b 30 µM, co-application, single recording, Figure 5C

Molecule: APETx2
- IC50 (rASIC3): 37 to 63 nM
- IC50 (hASIC3): ~175 nM
- net charge [1]: +2.00

Molecule: DVDHVFLRF-NH2 [Sh5b]
- effect on analyzed parameters of ASIC current ([2]; Sh5b 100 nM, co-application, n = 5): no consistent concentration-dependent effects
- % ISS change (increase 🡹) [2, 5]: 🡹 85 ± 74%
- % Ipeak change (decrease 🡻) [2, 5]: 🡻2 ± 4%
- % Ƭdes change (decrease 🡻) [2, 5]: 🡻 1 ± 2%
- effect on analyzed parameters ([2]; Sh5b 100 nM, preincubation, n = 9): no effect
- % ISS change (increase 🡹) [2, 6]: 🡹 53 ± 38%
- % Ipeak change (decrease 🡻) [2, 6]: 🡻0.5 ± 6%
- % Ƭdes change (increase 🡹) [2, 6]: 🡹 13 ± 15%
- change in Ƭdes [2, 7]: no change
- increase of ISS [2, 7]: 3%
- increase of Ipeak [2, 7]: 1%
- % Ƭdes change (increase 🡹) ([2]; Sh5b 1 µM, preincubation, mean ± E.S., n = 5): 🡹 3 ± 5%
- inhibition of ISS [2, 8]: 5%
- inhibition of Ipeak [2, 8]: 1%
- % Ipeak change (decrease 🡻) ([2]; Sh5b 3 µM, co-application, mean ± E.S., n = 12): 🡻6 ± 3%
- increase of ISS [2, 9]: 30%
- reduction of Ipeak [2, 9]: 9.6%
- overall change of Ipeak ([2]; Sh5b 10 µM, co-application, increase in some cells, decrease in others): non-significant
- % ISS change (increase 🡹) [2, 10]: 🡹 1 ± 11%
- % Ƭdes change (decrease 🡻) [2, 10]: 🡻 10 ± 5%
- % Ipeak change (increase 🡹) ([2]; Sh5b 10 µM, co-application, mean ± E.S., n = 9, non-significant): 🡹17 ± 15%
- increase of ISS [2, 11]: 14.6%
- increase of Ipeak [2, 11]: 44.6%
- effect on studied parameters ([2]; Sh5b 10 µM, preincubation, n = 12): did not produced significant effects
- % ISS change (decrease 🡻) [2, 12]: 🡻 8 ± 15%
- % Ipeak change (decrease 🡻) [2, 12]: 🡻11 ± 4%
- % Ƭdes change (decrease 🡻) [2, 12]: 🡻 5 ± 4%
- change in Ƭdes [2, 13]: no change
- increase of ISS [2, 13]: 26%
- inhibition of Ipeak [2, 13]: 18%
- ISS amplitude ([2]; Sh5b 30 µM, co-application, from 79 pA before peptide, single recording, Figure 5C): 159 pA
- % Ipeak change (decrease 🡻) [2, 14]: 🡻1 ± 6%
- % Ƭdes change (increase 🡹) [2, 14]: 🡹 9 ± 5%
- increase of ISS [2, 15]: 102%
- inhibition of Ipeak [2, 15]: 3.8%
- overall effect on ASIC currents ([2]; Sh5b, both application protocols): did not show consistent results having both excitatory and inhibitory effects on the maximum ASIC currents; also recorded: did not produce consistent, reproducible, effects
- concentration dependence of effects on ASIC current ([2]; Sh5b, co-application, 100 nM-30 µM): not dependent on concentration
- effect on ISS/Ipeak relationship ([2]; Sh5b, co-application, overall): tendency towards the increase
- effect on Ƭdes ([2]; Sh5b, co-application, overall): did not show noticeable differences
- effect on ISS component ([2]; Sh5b, overall, preincubation): increased slightly
- effect on ISS/Ipeak relationship ([2]; Sh5b, preincubation, overall): also increased
- effect on current peak ([2]; Sh5b, preincubation, overall): tendency to inhibit the current peak
- effect on Ƭdes and integral of the current ([2]; Sh5b, preincubation, overall): no consistent changes
- reversibility of effect on ASIC current ([2]; after 1 min washout): reversed by 1 min peptide washout

Molecule: PcTx1
- IC50 (ASIC1a): 1 nM
- EC50 (ASIC1b): ~100 nM
- net charge [1]: +3

Molecule: Phe-Met-Arg-Phe amide [FMRFa, abundant tetrapeptide in invertebrate nervous systems, neurotransmitter and neuromodulator]
- EC50 (ASIC currents): ~10000 nM

Molecule: Sa12b peptide
- percent decrease of the ASIC I peak at pH 6.1, Sa12b by preincubation, 30 nM to 10 µM (highest at 1 µM), whole-cell voltage clamp of rat DRG neurons [3]: 98 % I_(peak)

Molecule: DVDHVFLRF-NH2 [Sh5b peptide]
- percent decrease of the ASIC I peak at pH 6.1, Sh5b by preincubation, 100 nM to 10 µM (largest at 10 µM; not significant), whole-cell voltage clamp of rat DRG neurons [4]: 11 % I_(peak)

Source: publication PMC6832649, “Sa12b Peptide from Solitary Wasp Inhibits ASIC Currents in Rat Dorsal Root Ganglion Neurons” (Toxins, 2019)
